From US10167326B2, “Alpha-fetoprotein “ring and tail” peptides” (ALBANY MEDICAL COLLEGE, priority 2010, dated 2019)
Non-standard residues stand in square brackets, D forms with d. Residues, ends and D or L forms follow the SMILES beside them. Groups on a side chain read outwards from the residue. No end group written: not given here. Hyp = O=C(O)[C@@H]1C[C@@H](O)CN1

Key:
[1] = test system: E2-stimulated immature mouse uterine growth; experiment: immature mouse uterine growth assay (inhibition of E2-stimulated uterine growth); type: in vivo; conditions: for inhibition of E2-stimulated uterine growth, dose response profile: over a number of doses (FIG. 6); for Inhibition ± S.E, % Mouse uterine growth Intraperitoneal: 1 μg/mouse intraperitoneally, E2-stimulated, mean±S.E. (n=5), * p<0.05 vs E2 alone
Protocol: Four cyclic peptides of decreasing ring size (Table 1) were synthesized and were assessed for antiestrogenic activity using the immature mouse uterine assay. Negative control mice received saline alone. Positive control mice received E2 alone. AFPep was used as a positive control peptide and cyclic Scr was used as a peptide control. Mice were injected intraperitoneally (i.p.) with each of these peptides at a dose of 1 μg/mouse. One hour later mice received 0.5 ug 17β-estradiol (E2) i.p. Twenty-two hours later uteri were dissected, weighed, and normalized to body weight. The results are reported as mean±S.E (n=5) for four independent experiments.
(§1) A ‘tail’ was attached to a nine-amino acid ring and included 1 or 2 amino acids defined as hydrophilic or hydrophobic based on the nature of their side-chains. Tails comprising the following amino acid(s): serine (S), tyrosine (Y), […], glutamic acid (E), phenylalanine-serine (FS) and tyrosine-isoleucine (YI) represent hydrophilic tails and tails comprising the following amino acid(s), phenylalanine (F), isoleucine (I) and phenylalanine-isoleucine (FI) are hydrophobic tails. All peptides were administered at a dose of 1 μg/mouse intraperitoneally or 10 μg/mouse by oral gavage. Values are presented as mean±S.E. (n=5). In culture, T47D cells were treated with each peptide at a concentration of 1 μM. Values are presented as mean±S.E (n=6). […] Wilcoxon Rank Sum Test.
(§2) All peptides were administered at a dose of 1 μg/mouse intraperitoneally or 10 μg/mouse by oral gavage. Values are presented as mean±S.E (n=5). In culture, T47D cells were treated with each peptide at a concentration of 1 μM. Values are presented as mean±S.E (n=6). […] Wilcoxon Rank Sum Test.
To evaluate peptide-induced inhibition by the peptide of the present invention of estrogen-stimulated proliferation of normal tissue, the immature mouse uterine growth assay was utilized. Briefly, 13-15 day-old Swiss/Webster female mice, 6-8 g in body weight, were distributed into treatment groups of 5 mice per group so that each group contained animals of the same range of body weight. The peptide of the invention was injected i.p., s.c., or p.o. into the mice. One hour later, estradiol (E2) or vehicle control for E2 was injected i.p. Twenty-two hours after the second injection, uteri were harvested, trimmed free of mesenteries, and immediately weighed. The uterine weights were normalized to mouse body weights to compensate for differences in body weight among litters of the same age. Experiments employed a minimum of five mice per group and the mean normalized uterine weight±SE for each group was calculated. Percent growth inhibition in a test group was calculated from normalized uterine wet weights as described below.
The ability to inhibit E2-stimulated growth of normal mouse uterus was used as a screening assay for biological activity of AFPep analogs. In general, inhibitory activity ≥20% is considered to be biologically significant. Each analog's inhibitory effect on E2-stimulated growth was compared to AFPep (a positive control) and to PGVGQ (SEQ ID NO: 51)(a negative control). PGVGQ (SEQ ID NO: 51 amino acids 478-482 of AFP) is a portion of the primary structure of AFP near to the anti-cancer active site of AFP and is comprised of amino acids (P, V, and G) that are important components of AFPep.

[2] = test system: T47D human breast cancer cells; experiment: T47D cell proliferation assay in the presence of E2; type: cell-based; conditions: different concentrations in vitro (FIG. 7)
[3] = test system: T47D human breast cancer cells; experiment: as above; type: cell-based; conditions: peptide 1 μM; E2-stimulated; mean±S.E (n=6); * p<0.05 vs E2 alone
Protocol: Anticancer activity of the cyclic peptides was also evaluated using the T47D cell proliferation assay. T47D cells were cultured on collagen-IV coated 24-well plates and treated with each of above peptides in the presence of E2. Final peptide concentrations of each peptide were 10^−6 M and final E2 concentration was 1 nM. Values are reported as mean±SEM (n=6) of four independent experiments. […] One-way ANOVA followed by Tukey's multiple comparison test. p≤0.05.
as §1, §2

[4] = test system: MCF-7 human breast cancer xenograft; experiment: E2-supplemented MCF-7 human breast cancer xenograft assay in SCID mice; type: in vivo, mouse; conditions: E2 pellets, 10 μg s.c., 10 μg i.p. or 100 μg p.o. once daily day 1 to day 20 (FIG. 8)
Excerpt: To determine the effectiveness of cyclo[EKTOVNOGN] (SEQ ID NO: 33)FI as a potential cancer therapeutic agent in a clinically relevant model, we assessed the effect of cyclo[EKTOVNOGN] (SEQ ID NO: 33)FI on E2-supplemented MCF-7 human breast cancer xenograft growth using different routes of administration. Briefly, a piece of MCF-7 human breast cancer measuring approximately 2 mm in average diameter was implanted under the kidney capsule of SCID mice. Mice were supplemented with E2 pellets implanted subcutaneously, at the time of tumor implantation, for a steady state of E2 at 10^−9M. Mice were treated with 10 μg subcutaneously (s.c.), 10 μg intraperitoneally (i.p.) or 100 μg orally (p.o.) cyclo [EKTOVNOGN] (SEQ ID NO: 33) FI was administered once daily from day 1 to day 20 of the experiment. Tumor size was measured as described in materials and methods. Data is presented as mean±S.E (n=5). After 20 days of treatment, the percentage change in tumor volume for each cyclo [EKTOVNOGN] […] One-way ANOVA followed by Tukey's multiple comparison test. *p<0.01 vs. E2.
The peptides of the invention were evaluated for their ability to inhibit tumor growth in a human tumor xenograft assay. Briefly, MCF-7 human breast cancer cells were obtained from ATCC® (Rockville, Md.) and were grown in DMEM supplemented with 5% FCS, 1% non-essential amino acids, 10 ng/ml insulin, 2 mM L-glutamine, 100 units/ml penicillin, and 100 μg/ml streptomycin. MCF-7 cells from culture were solidified into a fibrin clot. The tumor-containing clots were cut into pieces about 1.5 mm in diameter and implanted under the kidney capsule of severe combined immunodeficient (ICR-SCID) mice (Taconic Farms, Germantown, N.Y.) as described in Bennett et al. (Clin. Cancer Res. 1998; 4:2877-84).
Estrogen supplementation of mice was required for the growth of MCF-7 tumors. […] Tumor size was evaluated during survival laparotomy using a dissecting microscope at the time of tumor implantation and at days 15 and 30 after tumor implantation. […]

[5] = test system: Estrogen independent (ER−) MDA MB231 cells; experiment: MDA MB231 cell growth (MTT assay); type: cell-based, human; conditions: 10^−6M, 7 days, MTT (FIG. 9)
Protocol: Estrogen independent (ER^−)MDA MB231 cells were plated at 20,000 cells/well/ml in a collagen-IV coated 24-well plate. The next day, cells were treated with vehicle (0.1% ethanol), AFPep, cyclo[EKTOVNOGN] (SEQ ID NO: 33) YI, for 7 days. Each peptide was treated at 10^−6M. Cell proliferation was determined by MTT assay. Each value is the mean±S.E. (n=4) of three independent experiments.

Compound | inhibition of E2-stimulated uterine growth, dose response profile [1] | inhibition of E2-stimulated T47D human breast cancer cell growth, concentration response profile [2] | Inhibition ± S.E, % T47D cell proliferation [3] | other results
TOVNO (T[Hyp]VN[Hyp]) | undesirable | undesirable |  | 
CC[C@H](C)[C@H](NC(=O)[C@H](Cc1ccc(O)cc1)NC(=O)C[C@@H]1NC(=O)CNC(=O)[C@@H]2C[C@@H](O)CN2C(=O)[C@H](CC(N)=O)NC(=O)[C@H](C(C)C)NC(=O)[C@@H]2C[C@@H](O)CN2C(=O)[C@H]([C@@H](C)O)NC(=O)[C@H](CCCCN)NC(=O)[C@H](CCC(=O)O)NC1=O)C(N)=O [cyclo[EKTOVNOGN]YI] (cyclo(EKT[Hyp]VN[Hyp]GD([Tyr-Ile-NH2]))) | very little antiestrogenic activity | ineffective | 24 ± 3% | 
CC[C@H](C)[C@H](NC(=O)C[C@@H]1NC(=O)CNC(=O)[C@@H]2C[C@@H](O)CN2C(=O)[C@H](CC(N)=O)NC(=O)[C@H](C(C)C)NC(=O)[C@@H]2C[C@@H](O)CN2C(=O)[C@H]([C@@H](C)O)NC(=O)[C@H](CCCCN)NC(=O)[C@H](CCC(=O)O)NC1=O)C(N)=O [cyclo[EKTOVNOGN]I] (cyclo(EKT[Hyp]VN[Hyp]GD([Ile-NH2]))) |  |  | 55 ± 6* % | 
cyclo[EKTOVGOGN]K (EKT[Hyp]VG[Hyp]GNK; bridge (positions not given here); not fully specified (bridges); printed as cyclo[EKTOVGOGN]K; also: cyclic ring with lysine tail, ring closure and tail attachment not given here) |  |  |  | Inhibition ± S.E, % Mouse uterine growth Intraperitoneal [1]: 7 ± 3%
TOVNOGNEK (T[Hyp]VN[Hyp]GNEK) | superior dose response profile | superior dose response profile |  | inhibition of MCF-7 xenograft growth (change in tumor volume) [4]: efficacy equivalent to AFPep
cyclo[EKTOVNOGN]FS |  |  |  | Inhibition ± S.E, % Mouse uterine growth Intraperitoneal [1]: 7 ± 3%
CC[C@H](C)[C@H](NC(=O)[C@H](Cc1ccccc1)NC(=O)C[C@@H]1NC(=O)CNC(=O)[C@@H]2C[C@@H](O)CN2C(=O)[C@H](CC(N)=O)NC(=O)[C@H](C(C)C)NC(=O)[C@@H]2C[C@@H](O)CN2C(=O)[C@H]([C@@H](C)O)NC(=O)[C@H](CCCCN)NC(=O)[C@H](CCC(=O)O)NC1=O)C(N)=O [cyclo[EKTOVNOGN]FI] (cyclo(EKT[Hyp]VN[Hyp]GD([Phe-Ile-NH2]))) | significantly inhibited E2-stimulated growth in a dose-dependent manner and maintained its effectiveness at very high doses | inhibited E2-stimulated T47D human breast cancer cell growth in a concentration-dependent manner, even at high concentrations | 66 ± 2* % | efficacy in inhibition of E2-stimulated growth compared with AFPep ([1]; in vivo and in vitro, summary statements): more effective at inhibiting E2-stimulated growth than AFPep; inhibition of MCF-7 xenograft growth (change in tumor volume) [4]: significantly different from the E2 alone group; inhibition of MCF-7 xenograft growth (change in tumor volume) ([4]; listed as cyclo [ETKOVNOGN] FI): significantly inhibited the growth of tumor xenografts; effect on growth of ER− MDA MB 231 cells in culture [5]: no effect
